How the values were obtained:
Type in all cases: cell-based
[1] = system: T-Rex 293 cell line SC3 cells having increased expression of androgen receptor protein; test: Cellular growth inhibition, T-Rex 293 SC3 cells with doxycycline (increased androgen receptor expression); details: with 10 ng/mL doxycycline (increased androgen receptor), 72 hours, CellTiter-Glo 2.0
How it was run: (§1)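 Growth inhibition is measured in an inducible AR-expressing T-Rex 293 clone, SC3, cultured with or without 10 ng/mL doxycycline in hormone-depleted medium. Test compounds are applied for 72 hours. GI50 values derive from CellTiter-Glo 2.0 signal fitted by four-parameter regression.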

[2] = system: VCaP cells; test: Cellular growth inhibition assay for VCaP cells; details: Homo sapiens, 72 hours, CellTiter-Glo 2.0
[3] = system: T47D cells; test: Cellular growth inhibition assay for T47D cells; details: Homo sapiens, 72 hours, CellTiter-Glo 2.0
How it was run: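 Growth inhibition as GI50, fitted with four parameters to CellTiter-Glo luminescence after 72 h of compound exposure (0.5% DMSO). Cells were T47D, grown in insulin-supplemented (0.2 units/mL) DMEM with 10% FBS and treated one day post-seeding.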

[4] = system: T-Rex 293 cell line SC3 cells lacking increased expression of androgen receptor protein; test: Cellular growth inhibition, T-Rex 293 SC3 cells without doxycycline; details: not exposed to doxycycline, 72 hours, CellTiter-Glo 2.0
How it was run: as §1

| SMILES | GI50 [2] [nM] | GI50 [3] [nM] | GI50 [1] [nM] | GI50 [4] [nM] |
| --- | --- | --- | --- | --- |
| CC1(C)[C@H](NC(=O)c2cnc(N3CCC(OCCNS(=O)(=O)c4ccc(Nc5ncc(Br)c(Nc6cccc(F)c6C(N)=O)n5)cc4)CC3)nc2)C(C)(C)[C@H]1Oc1ccc(C#N)c(Cl)c1 [Compound I-13, 2-(4-(2-((4-((5-bromo-4-((2-carbamoyl-3-fluorophenyl)amino)pyrimidin-2-yl)amino)phenyl)sulfonamido)ethoxy)piperidin-1-yl)-N-((1 r,3r)-3-(3-chloro-4-cyanophenoxy)-2,2,4,4-tetramethylcyclobutyl)pyrimidine-5-carboxamide] | – | < 500 | > 3500 | > 3500 |
| CCc1cnn2c(NCc3ccc(=O)n(CCOCCOCCOCCOCCOCCOCCN(C)c4ncc(C(=O)N[C@H]5C(C)(C)[C@H](Oc6ccc(C#N)c(Cl)c6)C5(C)C)cn4)c3)cc(N3CCCC[C@H]3CCO)nc12 [Compound I-4, N-((1r,3r)-3-(3-chloro-4-cyanophenoxy)-2,2,4,4-tetramethylcyclobutyl)-2-((20-(5-(((3-ethyl-5-((S)-2-(2-hydroxyethyl)piperidin-1-yl)pyrazolo[1,5-a]pyrimidin-7-yl)amino)methyl)-2-oxopyridin-1(2H)-yl)-3,6,9,12,15,18-hexaoxaicosyl)(methyl)amino)pyrimidine-5-carboxamide] | – | – | 100 to 1000 | 100 to 1000 |
| CCc1cnn2c(NCc3ccc(OCCOCCOCCOC4CCN(c5ccc(C(=O)N[C@H]6C(C)(C)[C@H](Oc7ccc(C#N)c(Cl)c7)C6(C)C)nn5)CC4)nc3)cc(N3CCCC[C@H]3CCO)nc12 [Compound I-44, N-((1r,3r)-3-(3-chloro-4-cyanophenoxy)-2,2,4,4-tetramethylcyclobutyl)-6-(4-(2-(2-(2-((5-(((3-ethyl-5-((S)-2-(2-hydroxyethyl)piperidin-1-yl)pyrazolo[1,5-a]pyrimidin-7-yl)amino)methyl)pyridin-2-yl)oxy)ethoxy)ethoxy)ethoxy)piperidin-1-yl)pyridazine-3-carboxamide] | – | < 500 | 100 to 1000 | 100 to 1000 |
| CCc1cnn2c(NCc3ccc(OCCOCCOCCOCCOCCOCCOCCN(C)c4ncc(C(=O)N[C@H]5C(C)(C)[C@H](Oc6ccc(C#N)c(Cl)c6)C5(C)C)cn4)nc3)cc(N3CCCC[C@H]3CCO)nc12 [Compound I-5] | – | – | 100 to 1000 | 1000 to 3500 |
| CCc1cnn2c(NCc3ccc(OCCOCCOCCOCCOCCN(C)c4ncc(C(=O)N[C@H]5C(C)(C)[C@H](Oc6ccc(C#N)c(Cl)c6)C5(C)C)cn4)nc3)cc(N3CCCC[C@H]3CCO)nc12 [Compound I-3] | < 100 | – | < 100 | 100 to 1000 |

Now from value to compound, other results behind:

| GI50 [2] [nM] | GI50 [3] [nM] | SMILES | GI50 [1] [nM] | GI50 [4] [nM] |
| --- | --- | --- | --- | --- |
| < 100 | < 500 | CCc1cnn2c(NCc3ccc(OCCN4CCN(CC5CCN(c6ncc(C(=O)N[C@H]7C(C)(C)[C@H](Oc8ccc(C#N)c(Cl)c8)C7(C)C)cn6)CC5)CC4)nc3)cc(N3CCCC[C@H]3CCO)nc12 [Compound I-41] | < 100 | 100 to 1000 |
| < 100 | – | CCc1cnn2c(NCc3ccc(OCCOCCOCCOCCOCCOC4CCN(c5ncc(C(=O)N[C@H]6C(C)(C)[C@H](Oc7ccc(C#N)c(Cl)c7)C6(C)C)cn5)CC4)nc3)cc(N3CCCC[C@H]3CCO)nc12 [Compound I-9] | < 100 | 100 to 1000 |
| < 100 | – | CCc1cnn2c(NCc3ccc(OCCOCC4CCN(CC5CCN(c6ncc(C(=O)N[C@H]7C(C)(C)[C@H](Oc8ccc(C#N)c(Cl)c8)C7(C)C)cn6)CC5)CC4)nc3)cc(N3CCCC[C@H]3CCO)nc12 [Compound I-45] | < 100 | 100 to 1000 |
| – | 500 to 1500 | CCc1cnn2c(NCc3ccc(OCCN(C)c4ncc(C(=O)N[C@H]5C(C)(C)[C@H](Oc6ccc(C#N)c(Cl)c6)C5(C)C)cn4)nc3)cc(N3CCCC[C@H]3CCO)nc12 [Compound I-1] | 100 to 1000 | 100 to 1000 |
| < 100 | – | CCc1cnn2c(NCc3ccc(OCCCCOCCOC4CCN(c5ncc(C(=O)N[C@H]6C(C)(C)[C@H](Oc7ccc(C#N)c(Cl)c7)C6(C)C)cn5)CC4)nc3)cc(N3CCCC[C@H]3CCO)nc12 [Compound I-34] | < 100 | > 3500 |

Reference: patent US20260159520A1, “HETEROBIFUNCTIONAL COMPOUNDS AND METHODS OF TREATING DISEASE” (Halda Therapeutics OpCo, Inc., priority 2022, published 2026)
